From the supplement of paper PMC6470124

Tests used:
[1] = absolute recovery over mixed-bed multilayer solid-phase extraction; higher = better recovery; conditions: enrichment method: SPE
Procedure, shortened: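 Wastewater (100–250 mL, pH 6.5, glass-fibre filtered) and unfiltered nanopure water (1000 mL) were extracted on a three-layer mixed-bed cartridge, with standards spiked before extraction, after it, or not at all at 1000 ng/L and 200 ng/L respectively, apart from some classes. Internal standards were then added for liquid chromatography with high-resolution tandem mass spectrometry in both ionisation modes. Absolute recovery compares background-corrected response ratios of pre- and post-spiked samples across at least two replicates.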

[2] = absolute recovery over vacuum-assisted evaporative concentration; higher = better recovery; conditions: enrichment method: VEC
Procedure, shortened: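 Water samples (influent 6 mL, effluent 15 mL, surface and nanopure water 60 mL) were spiked with standards before concentration, after concentration or not at all, at 200 ng/L (nanopure/surface) or 1000 ng/L (wastewater), with class- and compound-specific adjustments. They were evaporated at 55 °C and 20 mbar to about 0.3 mL, brought to 0.4 mL and centrifuged. Internal standards were added afterwards and samples were analysed by LC-HRMS/MS. Absolute recovery was (response ratio pre − unspiked)/(post − unspiked) × 100, using averages of ≥ 2 replicates.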

[3] = LC retention time (Atlantis T3, 5-95% MeOH gradient, 0.1% formic acid); higher = more retained / less polar
Procedure, shortened: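 Retention times were recorded for reference standards on a polar reversed-phase C18 column. The standards were of purity ≥ 95%, and the Atlantis T3 column (3 × 150 mm, 3 μm) was run at 0.3 mL/min with a gradient from 5 to 95% methanol over 17.5 min, both water and methanol containing 0.1% formic acid. Detection used high-resolution tandem mass spectrometry on a QExactive Plus, with positive and negative electrospray in separate runs, and peaks were integrated in TraceFinder (5 ppm tolerance, at least three points per peak) before being checked by hand.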

absolute recovery ([1]; nanopure water) [%]	absolute recovery ([1]; surface water) [%]	absolute recovery ([1]; wastewater effluent) [%]	absolute recovery ([1]; wastewater influent) [%]	absolute recovery ([2]; wastewater effluent) [%]	absolute recovery ([2]; wastewater influent) [%]	LC retention time [3] [min]	Structure (SMILES)
74.1	27	36.7	44.8	111	144	19	CCOc1ccc2ccccc2c1C(=O)NC1C(=O)N2C1SC(C)(C)C2C(=O)[O-] (stereo unspecified) [Nafcillin]
59.5	65.4	65.1	81.3	106	109	10.8	C[NH2+]CCC(c1ccccc1)c1ccccn1 (stereo unspecified) [N-desmethylpheniramine]
95					108	13.4	OCC1OC(OC2(CCl)OC(CCl)C(O)C2O)C(O)C(O)C1Cl (stereo unspecified) [Sucralose]
90.9	94.9	90.3	94.9	108	103	9.13	CC[NH+](CC)CCNC(=O)c1cc(S(C)(=O)=O)ccc1OC [Tiaprid]
86.9	91	93.2	93.2	108	97.1	13.1	CC(=O)Nc1ccc(S(=O)(=O)[N-]c2nc(C)cc(C)n2)cc1 [N4-Acetyl-Sulfamethazin]
108	90.4	82	92.8	108	109	9.01	C[NH2+]C(CC(C)C)C(=O)NC1C(=O)NC(CC(N)=O)C(=O)NC2C(=O)NC3C(=O)NC(C(=O)NC(C(=O)[O-])c4cc(O)cc(O)c4-c4cc3ccc4O)C(O)c3ccc(c(Cl)c3)Oc3cc2cc(c3OC2OC(CO)C(O)C(O)C2OC2CC(C)([NH3+])C(O)C(C)O2)Oc2ccc(cc2Cl)C1O (stereo unspecified) [Vancomycin]
67	82.7	68.3	72.9	87.1	91.1	16.7	COCCCOc1cc(CC(CC([NH3+])C(O)CC(C(=O)NCC(C)(C)C(N)=O)C(C)C)C(C)C)ccc1OC (stereo unspecified) [Aliskiren]
81	78.3	76.4	87.1	96.6	58.2	17.3	CC12C=CC(=O)C=C1CCC1C2C(=O)CC2(C)C1CCC2(O)C(=O)CO (stereo unspecified) [Prednisone]
89.5	84.5	86.9	81.5	101	100	14	C[NH2+]CCCC(C#N)(c1ccc(OC)c(OC)c1)C(C)C (stereo unspecified) [D617]
4.4	5.9	5.4	4.3	107	58.4	3.63	Nc1[nH]c(=O)ncc1F [5-Fluoro-Cytosine]
92.8	75.1	89.1		90.1	136	16.2	CC[NH+](CC)CC#CCOC(=O)C(O)(c1ccccc1)C1CCCCC1 (stereo unspecified) [Oxybutynin]
87.7	95.3	89.4	84	105	91	15.1	CCCCOc1ccc(OCCC[NH+]2CCOCC2)cc1 [Pramoxine]
98.5	86	82.7	99	106	102	20.8	CC(C)(Oc1ccc(C(=O)c2ccc(Cl)cc2)cc1)C(=O)[O-] [Fenofibric-acid]
101	98.8	97	91.2	98	95.5	19	CSc1nc(NC2CC2)nc(NC(C)(C)C)n1 [Irgarol]
37.8	71.7	61.7	53.1	79.2	31.6	13.7	C=CC(=O)OCCOC(=O)CCC(=O)[O-] [Mono(2-acryloyloxyethyl)-succinate]
95.4	91.9	68.2	82.4	104	97.2	15.4	Nc1c(I)c(N)c(I)c(C(=O)[O-])c1I [3-5-Diamino-2-4-6-triiodobenzoic-acid]
69.5	39.2	55.8	74.5	90.5	96.4	13.2	[NH3+]C(Cc1cc(I)c(O)c(I)c1)C(=O)[O-] [3-5-Diiodo-L-tyrosine]
101	105	95.6		102		11.6	O=C1[N-]S(=O)(=O)c2ccccc21 [Saccharin]
108	82.5	88.5	126	86.1	82.1	17.1	CCCc1nc2c(C)cc(-c3nc4ccccc4n3C)cc2n1Cc1ccc(-c2ccccc2C(=O)[O-])cc1 [Telmisartan]
	94.3	92.3	96	103	105	15.6	Cc1cccc(Nc2ccncc2S(=O)(=O)[N-]C(=O)NC(C)C)c1 [Torasemid]
73.9	78.4	76.3	92.2	87.3	76.6	22.3	CCCC(NOCC)=C1C(=O)CC(C2CCCSC2)CC1=O (stereo unspecified) [Cycloxydim]
92.4	97.3	94.7	95.7	93.9	6.6	21.4	CC(=O)C1CCC2C3CCC4=CC(=O)CCC4(C)C3CCC12C (stereo unspecified) [Progesteron]

Structure (SMILES)	absolute recovery ([1]; nanopure water) [%]	absolute recovery ([1]; surface water) [%]	absolute recovery ([1]; wastewater effluent) [%]	absolute recovery ([1]; wastewater influent) [%]	absolute recovery ([2]; wastewater effluent) [%]	absolute recovery ([2]; wastewater influent) [%]	LC retention time [3] [min]
COC=C(C(=O)OC)c1ccccc1Oc1cc(Oc2ccccc2C#N)ncn1 [Azoxystrobin]	96.9	96	92.8	93.6	102	99.4	18.9
N#CCNC(=O)c1cnccc1C(F)(F)F [Flonicamid]	96.3	101	99.5	96	99.6	106	12.2
CC(C1CC1)C(O)(Cn1cncn1)c1ccc(Cl)cc1 (stereo unspecified) [Cyproconazol]	99.4	88.2	87.6	93.5	92.9	95.8	20.1
CCNc1nc(Cl)nc(NC(C)C)n1 [Atrazin]	96.7	98.1	93.8	91.5	99.3	97.7	18.5
Oc1cc(Cl)ccc1Oc1ccc(Cl)cc1Cl [Triclosan]	97.2	90.7	90	92.3		117	21.9
COP(=O)(OC)OC=C(Cl)Cl [Dichlorvos]	63.4	47.3	60	87.4	34.5	39.6	16.8
Cc1cccc(C)c1N(Cn1cccn1)C(=O)CCl [Metazachlor]	96.5	97	93.4	94.5	104	96	18.3
C#CCOc1ccc(CCNC(=O)C(OCC#C)c2ccc(Cl)cc2)cc1OC (stereo unspecified) [Mandipropamid]	105	117	110	93.5	110	112	19.2
O=C(OC1CC2CCC(C1)[N+]21CCCC1)C(O)(c1ccccc1)c1ccccc1 (stereo unspecified) [Trospium]	85.5	91.7	91.1	87.3	99.2	103	13.7
N#Cc1c[nH]cc1-c1cccc2c1OC(F)(F)O2 [Fludioxonil]	101	108	105	77	116	108	19.5
COC(=O)[N-]S(=O)(=O)c1ccc(N)cc1 [Asulam]	101	34.2	42.6	43.9	95.8	88.4	10.5
CCC(=[NH+]OCC=CCl)C1=C([O-])CC(C2CCOCC2)CC1=O (stereo unspecified) [Tepraloxydim]	98.7	90.1	92.9		114	102	19
COc1cc(OC)nc(NC(=O)[N-]S(=O)(=O)c2ncccc2C(=O)N(C)C)n1 [Nicosulfuron]	95.8	97.3	96.2	95.7	103	102	16.9
COC(=O)c1ccccc1S(=O)(=O)[N-]C(=O)Nc1nc(C)nc(OC)n1 [Metsulfuron-methyl]	98.1	95.2	95.9		102	105	17
CC1(C)CCC(Cc2ccc(Cl)cc2)C1(O)Cn1cncn1 (stereo unspecified) [Metconazole]	95.9	108	94.9	80.9	100	105	21.3
CN1CC[NH+]=C(c2ccccc2)c2cc(Cl)ccc21 [Medazepam]	83.9	95.2	93.6	68.8	103	109	14.5
CCCOCC(=Nc1ccc(Cl)cc1C(F)(F)F)n1ccnc1 [Triflumizole]	85.9	104	97.8	61.8	93.9	114	21.3
C[NH+]=C([N-][N+](=O)[O-])NCc1cnc(Cl)s1 [Clothianidin]		95.6		94.1	104	106	13.8
CCc1ccc(C(=O)NN(C(=O)c2cc(C)cc(C)c2)C(C)(C)C)cc1 [Tebufenozid]	104	111	98.7	103	102	98.1	20.5
CSc1nc(NC(C)C)nc(NC(C)C)n1 [Prometryn G]	97.7	92.8	92.4	94.1	94.8	94.8	18.2
